# Reference: a melting point compilation (Tetko et al.; mined from patent text by program, amines drawn as free bases though some values may be those of a salt)
row,melting point,Compound
1,310 to 312 °C,COc1cc(C2=Nc3ccc(N4CCCC4)cc3C(=O)C2)ccc1O
2,232 to 233 °C,c1ccc(C(CCOc2ccc(-c3nnn[nH]3)cc2)(c2ccccc2)c2ccccc2)cc1
3,137 to 145 °C,CN1CCC(c2cccc3ccc(NC(=O)c4ccccc4)cc23)C1 (configuration not stated)
4,208 °C,Cc1ccn2c(-c3ccnc(-c4ccc(N5CCOCC5)cc4)c3)c(-c3cccc(C)n3)nc2c1
5,206 to 207 °C,Cc1cc(Cl)cc(NC(=O)C=NO)c1
6,> 220 °C,c1coc(-c2cnc3[nH]c4ccccc4c3c2)c1
7,150 °C,COCCOc1cc(C(O)C#Cc2ccc(C(=O)O)cc2)cc2c1C(C)(C)CCC2(C)C (configuration not stated)
8,88 to 89 °C,O=S(=O)(c1ccc(Cl)cc1)C(c1cccc(CCc2ccccn2)n1)c1cc(F)ccc1F (configuration not stated)
9,166 to 168 °C,CCCCCc1cc(-c2cc(=O)c3c(O)cc(O)cc3o2)ccc1OC
10,78 to 79 °C,O=C(NCCCCn1cncn1)c1ccco1
11,118 to 123 °C,O=C(Nc1ccc(Cl)c(Cl)c1)Oc1cccc(N=C=S)c1
12,118 to 120 °C,O=C(O)Cc1ccc(C2=CCCCC2)cc1
13,155 to 156 °C,COc1c(OCc2ccccc2)c(OC)c2c(=O)cc(-c3ccc(OCc4ccccc4)c(OCc4ccccc4)c3)oc2c1OC
14,73 to 76 °C,CCOC(=N)C(O)c1sccc1C (configuration not stated)
15,243 to 245 °C,O=C(O)C=CC=Cc1cccc2cncn12
16,146 °C,O=C(O)c1cccc2c1Oc1c(cccc1C(=O)O)N2
17,79 to 80 °C,CCOC1=NN(C)C(=O)C1
18,49 to 51 °C,Cc1ccc(C(=O)Cl)cc1OCc1ccccc1
19,165 to 167 °C,CCOc1cc2ncc(C#N)c(Nc3ccc(OCc4cccc(F)c4)c(Cl)c3)c2cc1NC(=O)/C=C/CN(C)C
20,92 to 94 °C,COC(OC)c1cc(-n2c(=O)cc(C(F)(F)F)n(C)c2=O)ccc1Cl
21,226 °C,COc1cccc(-c2nc(=O)c3ccccc3s2)n1
22,140 to 142 °C,CC(=O)N1c2ccc(Cl)cc2CC1C#N (configuration not stated)
23,50 °C,CC(C)C(=CCS(=O)(=O)c1ccccc1)C(C)C

row,melting point,Compound
1,88 to 89 °C,N#CC(CCCCCC(=O)O)c1ccc2ccccc2c1 (configuration not stated)
2,181 to 183 °C,CC(=O)Nc1cccc(-n2ccnc2)c1
3,91 to 93 °C,COc1ccc(C(=C/C=C/C(=O)NCCCCc2cncc3ccccc23)c2ccc(OC)cc2)cc1
4,100 °C,CN(C)C=CC(=O)c1cc(Cl)cc(Cl)c1
5,194 °C,CC(C)(C)C(=O)N[C@H]1CC[C@H](CCN2CCN(c3nccc4c3OCC4)CC2)CC1
6,302 to 304 °C,CNc1ccc(-n2nc3c4ccccc4[nH]cc-3c2=O)cc1
7,90 to 91 °C,CN(CCO)c1ccncc1
8,83 to 85 °C,Cc1nc2c(Cl)cc(F)c(-n3c(=O)cc(C(F)(F)F)n(C)c3=O)c2s1
9,178 to 181 °C,CCOC(=O)C1=C(COCCNC=O)NC(C)=C(C(=O)OC)C1c1cccc(Cl)c1Cl (configuration not stated)
10,60 to 62 °C,CCOC1OC(CO)C(COc2c(C(C)(C)C)cc(SC(C)(C)Sc3cc(C(C)(C)C)c(O)c(C(C)(C)C)c3)cc2C(C)(C)C)O1 (configuration not stated)
11,214 to 216 °C,Nc1nc2ccccc2c2c1nc(-c1ccccc1)n2CCCCNS(=O)(=O)c1ccc(F)cc1
12,254 to 257 °C,CCOC(=O)c1cn(NC=O)c2cc(-n3cccc3)c(F)cc2c1=O
13,138 to 140 °C,O=C(O)C[C@@H](NC(=O)CN1C[C@H](c2ccccc2)Oc2ccc(NC(=O)NCc3ccccc3)cc2C1=O)c1ccccc1
14,169 to 170 °C,O=C1C(NCCN2CCCC2)=CC(=O)c2oc(-c3cccc(Br)c3)nc21
15,161 to 162 °C,O=C1NCCCc2cc(OCCCN3CCN(Cc4ccc5ccccc5n4)CC3)ccc21
16,212 to 214 °C,Cc1cc2cc(N(C(=O)Nc3ccc(F)cc3F)c3ccccc3Cl)c(=O)oc2cc1C
17,47 to 49 °C,CCCCCCCCCCCCCCCCCCOc1cc(OC(=O)C(c2ccccc2)c2ccccc2)cc(C(=O)OCc2ccccc2)c1
18,48 to 51 °C,O=CCCOc1ccc(CC2SC(=O)NC2=O)cc1 (configuration not stated)
19,82 to 83 °C,ClCCCOc1ccc(/C=C/c2nc3ccccc3o2)cc1
20,234 to 235 °C,CN(Cc1ccc(NC(=O)C2=Cc3cc(-c4cc5ccccc5o4)ccc3S(=O)(=O)CC2)cc1)C1CCOCC1
21,202 to 204 °C,Cc1ccc(-c2cc(=O)c(Br)c(C(=O)O)o2)cc1
22,234 to 238 °C,N[C@@H](Cc1cn(Cc2ccccc2)cn1)C(=O)O
23,95 to 100 °C,COc1cc(N)ccc1-c1nc(-c2cccnc2)c(C)[nH]1

row,melting point,Compound
1,37 to 38 °C,C(=Cc1ccccc1)Cn1ccnc1
2,153 °C,Nc1cccc(O)c1Cl
3,216 to 218 °C,CCOCc1nc2c(N)nc3cc(OCc4ccccc4C)ccc3c2n1CC(C)C
4,152 to 153 °C,COc1cc([N+](=O)[O-])c(NC(C)=O)cc1Cl
5,166 to 168 °C,O=C(CCOCCOCCC(=O)Oc1cc(O)cc(O)c1)Oc1cc(O)cc(O)c1
6,186 to 187 °C,CN(C)C(=O)CCC12CC(c3ccccc31)c1ccccc12
7,73.5 to 75 °C,CON=C(C(C)=O)C(=O)N(C)C
8,195 to 197 °C,CCc1ccc(NC(=O)N[C@H]2C[C@H](C(=O)O)Nc3cc(Cl)cc(Cl)c32)cc1 (relative stereo)
9,150 to 151 °C,CN1C(=O)SC(S(=O)(=O)c2cccc3c(Br)cccc23)C1=O (configuration not stated)
10,112 to 114 °C,C[N+]([O-])=C(Cn1ccnc1)c1ccc2ccccc2c1
11,200 to 203 °C,COc1ccc(C)cc1NC(=O)Nc1ccc(N2CCC(C(=O)Nc3ncccc3C)CC2)cc1
12,168 to 169 °C,CCCn1c(=O)c2c(nc(/C=C/c3cc(OC)c(OC)c(OC)c3)n2C)n(CCC)c1=O
13,168 to 170 °C,Cc1cc(-n2ncc(-c3ccc(S(C)(=O)=O)cc3)c(-c3ccc(F)cc3)c2=O)ccc1F
14,116 to 120 °C,CCN1CCC=C(c2csc(N)n2)C1
15,78 to 80 °C,Fc1ccc2c(C3CCN(CCCOc4ccccc4)CC3)noc2c1
16,149 °C,CN(C)C(=O)Nc1ccc(Oc2ccc3sncc3c2)c(Cl)c1
17,> 270 °C,O=C1c2ccccc2C(Cc2ccncc2)(Cc2ccncc2)C(=O)N1c1ccccc1
18,107 to 112 °C,CCOC(=O)C1=C(COCC2(C)CO2)NC(C)=C(C(=O)OC)C1c1cccc(Cl)c1Cl (configuration not stated)
19,131 to 134 °C,S=c1[nH]ccn1CCc1cccs1
20,144 °C,Cc1cc(C)cc(NCc2ccc3nc(NC4CCN(CCO)CC4)n(Cc4nc(C)ccc4O)c3c2)c1
21,118 to 119 °C,CCOCc1nc2cnc3cccnc3c2n1Cc1ccccc1

row,Compound,melting point
1,Cc1nnc2n1-c1sc(Cl)cc1C(c1ccccn1)=NC2,174 to 176 °C
2,O=[N+]([O-])c1nccn1CC(O)CN1CC1 (configuration not stated),118 to 120 °C
3,O=C(N=C1SCCN1Cc1cnc(Cl)s1)c1ccccc1,120 °C
4,O=C(NCc1ccc(Cl)cc1)c1cn(CCCOC2CCCCO2)c2c(F)cc(CO)cc2c1=O (configuration not stated),148 to 150 °C
5,COCCNc1ccc(C(=O)c2c(C)n(CCN3CCOCC3)c3ccccc23)cc1,121 to 123 °C
